Experimental findings from patent publication US12441726B2, “Compounds and uses thereof” (Foghorn Therapeutics Inc., priority 2020, dated 2025) are described below.

pIC50: −log10 of the molar value. Some results are limits rather than exact numbers.

Sequence of BRM (P51531 whole entry): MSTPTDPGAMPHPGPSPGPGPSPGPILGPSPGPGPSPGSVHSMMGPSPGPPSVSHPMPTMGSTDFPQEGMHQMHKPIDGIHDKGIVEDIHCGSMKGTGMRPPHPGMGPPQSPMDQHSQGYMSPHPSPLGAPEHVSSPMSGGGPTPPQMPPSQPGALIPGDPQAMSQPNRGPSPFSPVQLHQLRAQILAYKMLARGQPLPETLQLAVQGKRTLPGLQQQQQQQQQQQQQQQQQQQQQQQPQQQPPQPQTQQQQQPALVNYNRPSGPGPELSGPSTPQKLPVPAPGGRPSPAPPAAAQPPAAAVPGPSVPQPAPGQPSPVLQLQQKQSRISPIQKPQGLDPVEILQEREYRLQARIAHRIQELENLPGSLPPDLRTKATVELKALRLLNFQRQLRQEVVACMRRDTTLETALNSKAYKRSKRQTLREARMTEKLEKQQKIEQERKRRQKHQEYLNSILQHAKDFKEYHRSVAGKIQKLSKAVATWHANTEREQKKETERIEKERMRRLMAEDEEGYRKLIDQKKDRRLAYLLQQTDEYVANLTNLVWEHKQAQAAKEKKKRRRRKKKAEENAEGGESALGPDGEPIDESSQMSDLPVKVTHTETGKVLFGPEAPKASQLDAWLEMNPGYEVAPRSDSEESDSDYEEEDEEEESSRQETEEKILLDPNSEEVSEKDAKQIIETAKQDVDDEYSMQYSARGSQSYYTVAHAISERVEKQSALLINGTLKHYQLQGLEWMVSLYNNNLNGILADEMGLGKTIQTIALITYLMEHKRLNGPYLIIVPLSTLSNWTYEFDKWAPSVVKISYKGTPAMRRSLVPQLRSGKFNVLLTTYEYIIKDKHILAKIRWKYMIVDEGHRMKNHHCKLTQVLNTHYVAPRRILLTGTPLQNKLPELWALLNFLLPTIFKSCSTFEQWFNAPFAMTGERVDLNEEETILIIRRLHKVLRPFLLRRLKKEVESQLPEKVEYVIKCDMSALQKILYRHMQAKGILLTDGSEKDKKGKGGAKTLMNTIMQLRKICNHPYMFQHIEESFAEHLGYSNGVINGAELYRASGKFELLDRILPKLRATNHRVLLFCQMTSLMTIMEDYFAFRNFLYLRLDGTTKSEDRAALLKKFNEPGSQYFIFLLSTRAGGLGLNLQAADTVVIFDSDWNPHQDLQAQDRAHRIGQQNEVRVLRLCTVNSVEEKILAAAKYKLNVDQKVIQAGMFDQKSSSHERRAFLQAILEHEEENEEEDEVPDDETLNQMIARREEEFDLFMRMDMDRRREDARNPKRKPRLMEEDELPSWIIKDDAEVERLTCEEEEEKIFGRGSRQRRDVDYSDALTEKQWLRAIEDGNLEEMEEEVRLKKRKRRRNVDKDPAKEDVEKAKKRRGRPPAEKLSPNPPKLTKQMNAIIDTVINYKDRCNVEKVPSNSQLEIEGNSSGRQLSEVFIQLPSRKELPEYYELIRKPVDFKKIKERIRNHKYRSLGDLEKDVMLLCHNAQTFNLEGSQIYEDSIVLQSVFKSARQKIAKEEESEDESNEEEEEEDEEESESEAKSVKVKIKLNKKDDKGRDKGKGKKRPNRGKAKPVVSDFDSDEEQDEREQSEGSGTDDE
Sequence of BRG-1 (P51532 whole entry): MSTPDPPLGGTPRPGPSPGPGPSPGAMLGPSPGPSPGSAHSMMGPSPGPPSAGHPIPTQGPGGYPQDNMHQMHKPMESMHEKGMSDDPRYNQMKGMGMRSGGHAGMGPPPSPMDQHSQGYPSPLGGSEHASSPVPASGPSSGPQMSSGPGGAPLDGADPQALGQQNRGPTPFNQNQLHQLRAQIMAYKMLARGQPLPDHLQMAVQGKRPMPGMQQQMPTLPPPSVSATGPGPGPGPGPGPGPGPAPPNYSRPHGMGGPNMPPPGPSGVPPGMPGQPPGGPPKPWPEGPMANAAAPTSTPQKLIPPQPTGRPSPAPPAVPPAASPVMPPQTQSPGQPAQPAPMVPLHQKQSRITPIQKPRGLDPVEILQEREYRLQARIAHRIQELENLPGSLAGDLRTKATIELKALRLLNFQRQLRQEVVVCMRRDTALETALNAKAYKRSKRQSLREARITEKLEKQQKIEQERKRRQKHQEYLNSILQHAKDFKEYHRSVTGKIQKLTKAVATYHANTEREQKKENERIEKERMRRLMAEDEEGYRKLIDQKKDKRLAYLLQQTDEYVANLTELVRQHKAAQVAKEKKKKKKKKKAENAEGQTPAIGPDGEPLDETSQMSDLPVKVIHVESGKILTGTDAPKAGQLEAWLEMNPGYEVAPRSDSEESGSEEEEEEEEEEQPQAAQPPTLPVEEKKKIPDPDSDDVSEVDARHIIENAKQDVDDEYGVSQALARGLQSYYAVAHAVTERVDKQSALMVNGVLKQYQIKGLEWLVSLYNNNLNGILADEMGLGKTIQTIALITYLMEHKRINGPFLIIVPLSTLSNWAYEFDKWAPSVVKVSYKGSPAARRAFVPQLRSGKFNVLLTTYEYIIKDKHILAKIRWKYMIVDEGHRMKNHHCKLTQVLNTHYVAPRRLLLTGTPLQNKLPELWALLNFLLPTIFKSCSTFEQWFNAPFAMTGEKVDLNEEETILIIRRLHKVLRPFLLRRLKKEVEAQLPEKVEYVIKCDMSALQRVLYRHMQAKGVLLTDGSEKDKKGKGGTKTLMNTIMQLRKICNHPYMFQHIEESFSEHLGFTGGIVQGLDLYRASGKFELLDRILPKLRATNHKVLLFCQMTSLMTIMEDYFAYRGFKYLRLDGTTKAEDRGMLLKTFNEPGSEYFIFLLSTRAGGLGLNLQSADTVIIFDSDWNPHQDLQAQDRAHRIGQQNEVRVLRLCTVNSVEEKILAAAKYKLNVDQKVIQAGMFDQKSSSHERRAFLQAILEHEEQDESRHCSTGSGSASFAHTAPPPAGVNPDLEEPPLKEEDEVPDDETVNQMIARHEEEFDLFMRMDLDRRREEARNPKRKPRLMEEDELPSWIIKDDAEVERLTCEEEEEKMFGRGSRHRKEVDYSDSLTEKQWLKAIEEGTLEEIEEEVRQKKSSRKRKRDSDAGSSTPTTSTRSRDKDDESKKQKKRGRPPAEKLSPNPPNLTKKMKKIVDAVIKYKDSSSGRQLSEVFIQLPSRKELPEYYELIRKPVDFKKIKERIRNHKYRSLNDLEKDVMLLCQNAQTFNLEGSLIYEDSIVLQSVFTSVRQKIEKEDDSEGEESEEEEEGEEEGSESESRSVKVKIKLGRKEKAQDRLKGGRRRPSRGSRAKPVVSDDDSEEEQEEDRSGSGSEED

One experiment has as its target BRM (Homo sapiens, UniProt P51531). Description: ATPase catalytic activity assay (ADP-Glo), BRM. The following applies: 30 nM BRM, 400 μM ATP. For orientation: In ADP-Glo the light output rises with the ADP produced.
Consider `COc1nn(C2COC2)cc1-c1ccc2cnc(CNC(=O)c3ccc4c(c3)[C@](C)(C#N)COC4)cc2n1` [Compound 236], for which the “BRM Max % Inhibition” value is 100%.
Still for that read-out and setting: next, `Cc1cc2c(-c3ccc4cnc(CNC(=O)c5ccc6c(c5)[C@](C)(C#N)COC6)cc4n3)ccc(F)c2n1C` [Compound 129]: 100%; `COC(=O)N1CCC2CC2(c2ccc3cnc(CNC(=O)c4ccc5c(c4)[C@](C)(C#N)COC5)cc3n2)C1` (some centres unmarked) [Compound 523]: 90%.
The same measure, in the same setting: the value for `C[C@@]1(C#N)COCc2ccc(C(=O)NCc3cc4nc(-c5cccc6c5ccn6CCO)ccc4cn3)cc21` [Compound 159] was 99%.
On the same count and under the same terms, next, `COc1ccncc1-c1ccc2cnc(CNC(=O)c3ccc4c(c3)[C@](C)(C#N)COC4)cc2n1` [Compound 489]: 97%; `C[C@@]1(C#N)COCc2c(F)cc(C(=O)NCc3cc4nc(-c5ccccc5)ccc4cn3)cc21` [Compound 400]: 96%.
`C[C@@]1(C#N)COCc2ccc(C(=O)NCc3cc4nc(-c5cncc(N6CCC6)n5)sc4cn3)cc21` [Compound 353]: the “BRM Max % Inhibition” value stood at 93%.
On the same count and under the same terms, next, `C[C@@]1(C#N)COCc2ccc(C(=O)NCc3cc4nc(-c5cn(C6COC6)nc5OC(F)F)ccc4cn3)cc21` [Compound 154]: 101%.
On to `Cc1cc(-c2ccc3cnc(CNC(=O)c4ccc5c(c4)[C@](C)(C#N)COC5)cc3n2)on1` [Compound 231], for which the “BRM Max % Inhibition” value is reported as 91%.
Same read-out and setting: next, `C[C@@H]1CN(c2cccc(-c3ccc4[nH]c(CNC(=O)c5ccc6c(c5)[C@](C)(CO)CC6)nc4c3)c2)C[C@H](C)O1` [Compound 526]: 90.7%.
The same measure, in the same setting: next, `C[C@@]1(F)COCc2ccc(C(=O)NCc3cc4nc(-c5ccnc(N6CC[C@H]7COC[C@@H]7C6)n5)ccc4cn3)cc21` [Compound 307]: 98%; `COc1ccc(-c2ccc3cnc(CNC(=O)c4ccc5c(c4)[C@](C)(C#N)COC5)cc3n2)cc1` [Compound 108]: 99%; `C[C@@]1(F)COCc2ccc(C(=O)NCc3cc4nc(-c5cccc(C(F)F)n5)ccc4nn3)cc21` [Compound 254]: 99%.
As for `C[C@@]1(C#N)COCc2ccc(C(=O)NCc3cc4nc(-n5cc(F)c(N6CCC6)n5)ccc4cn3)cc21` [Compound 425], the “BRM Max % Inhibition” value stood at 98%.
Still for that read-out and setting: next, `COc1nn(C(F)F)cc1-c1ccc2cnc(CNC(=O)c3ccc4c(c3)[C@](C)(C#N)COC4)cc2n1` [Compound 193]: 99%.
The same measure, in the same setting: next, `COC(=O)c1cccc(C#Cc2ccnc(CNC(=O)c3ccc4c(c3)[C@](C)(C#N)CO4)c2)c1` [Compound 37]: 76%; `C[C@@]1(C#N)COCc2ccc(C(=O)NCc3cc4nc(-c5cccnc5)sc4cn3)cc21` [Compound 439]: 88%.

Staying with this experiment, now noted: BRM ATPase: IC50 (uM), 30 nM BRM, 400 μM ATP.
`COc1nn(C2COC2)cc1-c1ccc2cnc(CNC(=O)c3ccc4c(c3)[C@](C)(C#N)COC4)cc2n1` [Compound 236] displayed an IC50 below 0.1 µM.
On the same count and under the same terms, next, `Cc1cc2c(-c3ccc4cnc(CNC(=O)c5ccc6c(c5)[C@](C)(C#N)COC6)cc4n3)ccc(F)c2n1C` [Compound 129]: below 0.1 µM; `COC(=O)N1CCC2CC2(c2ccc3cnc(CNC(=O)c4ccc5c(c4)[C@](C)(C#N)COC5)cc3n2)C1` (some centres unmarked) [Compound 523]: 0.1 to 0.5 µM; `C[C@@]1(C#N)COCc2ccc(C(=O)NCc3cc4nc(-c5cccc6c5ccn6CCO)ccc4cn3)cc21` [Compound 159]: below 0.1 µM.
Same read-out and setting: next, `COc1ccncc1-c1ccc2cnc(CNC(=O)c3ccc4c(c3)[C@](C)(C#N)COC4)cc2n1` [Compound 489]: 0.1 to 0.5 µM; `C[C@@]1(C#N)COCc2c(F)cc(C(=O)NCc3cc4nc(-c5ccccc5)ccc4cn3)cc21` [Compound 400]: 0.1 to 0.5 µM.
The same measure, in the same setting: the value for `C[C@@]1(C#N)COCc2ccc(C(=O)NCc3cc4nc(-c5cncc(N6CCC6)n5)sc4cn3)cc21` [Compound 353] was below 0.1 µM; that for `C[C@@]1(C#N)COCc2ccc(C(=O)NCc3cc4nc(-c5cn(C6COC6)nc5OC(F)F)ccc4cn3)cc21` [Compound 154] was below 0.1 µM.
`Cc1cc(-c2ccc3cnc(CNC(=O)c4ccc5c(c4)[C@](C)(C#N)COC5)cc3n2)on1` [Compound 231]: the concentration for half-maximal inhibition (IC50) was in the range of 0.1 to 0.5 µM.
On the same count and under the same terms, the value for `C[C@@H]1CN(c2cccc(-c3ccc4[nH]c(CNC(=O)c5ccc6c(c5)[C@](C)(CO)CC6)nc4c3)c2)C[C@H](C)O1` [Compound 526] was 0.1 to 0.5 µM; that for `C[C@@]1(F)COCc2ccc(C(=O)NCc3cc4nc(-c5ccnc(N6CC[C@H]7COC[C@@H]7C6)n5)ccc4cn3)cc21` [Compound 307] was below 0.1 µM.
Compound `COc1ccc(-c2ccc3cnc(CNC(=O)c4ccc5c(c4)[C@](C)(C#N)COC5)cc3n2)cc1` [Compound 108] showed an IC50 below 0.1 µM.
Still for that read-out and setting: next, `C[C@@]1(F)COCc2ccc(C(=O)NCc3cc4nc(-c5cccc(C(F)F)n5)ccc4nn3)cc21` [Compound 254]: below 0.1 µM; `C[C@@]1(C#N)COCc2ccc(C(=O)NCc3cc4nc(-n5cc(F)c(N6CCC6)n5)ccc4cn3)cc21` [Compound 425]: below 0.1 µM.
The compound `COc1nn(C(F)F)cc1-c1ccc2cnc(CNC(=O)c3ccc4c(c3)[C@](C)(C#N)COC4)cc2n1` [Compound 193] displayed a 50% inhibitory concentration (IC50) below 0.1 µM.
The compound `COC(=O)c1cccc(C#Cc2ccnc(CNC(=O)c3ccc4c(c3)[C@](C)(C#N)CO4)c2)c1` [Compound 37] gave an IC50 above 1 µM.
Same read-out and setting: next, `C[C@@]1(C#N)COCc2ccc(C(=O)NCc3cc4nc(-c5cccnc5)sc4cn3)cc21` [Compound 439]: 0.1 to 0.5 µM.

Another experiment concerns the target BRG-1 (Homo sapiens, UniProt P51532). The experiment is described as follows: ATPase catalytic activity assay (ADP-Glo), BRG-1.
Details: not given
In turn, `COc1nn(C2COC2)cc1-c1ccc2cnc(CNC(=O)c3ccc4c(c3)[C@](C)(C#N)COC4)cc2n1` [Compound 236] gave a pIC50 of 6.30 to 7.00.
Same read-out and setting: the value for `Cc1cc2c(-c3ccc4cnc(CNC(=O)c5ccc6c(c5)[C@](C)(C#N)COC6)cc4n3)ccc(F)c2n1C` [Compound 129] was above 7.00; that for `COC(=O)N1CCC2CC2(c2ccc3cnc(CNC(=O)c4ccc5c(c4)[C@](C)(C#N)COC5)cc3n2)C1` (some centres unmarked) [Compound 523] was 6.00 to 6.30; that for `C[C@@]1(C#N)COCc2ccc(C(=O)NCc3cc4nc(-c5cccc6c5ccn6CCO)ccc4cn3)cc21` [Compound 159] was 6.30 to 7.00.
Same read-out and setting: the value for `COc1ccncc1-c1ccc2cnc(CNC(=O)c3ccc4c(c3)[C@](C)(C#N)COC4)cc2n1` [Compound 489] was 6.00 to 6.30.
On the same count and under the same terms, the value for `C[C@@]1(C#N)COCc2c(F)cc(C(=O)NCc3cc4nc(-c5ccccc5)ccc4cn3)cc21` [Compound 400] was 6.00 to 6.30; that for `C[C@@]1(C#N)COCc2ccc(C(=O)NCc3cc4nc(-c5cncc(N6CCC6)n5)sc4cn3)cc21` [Compound 353] was 6.30 to 7.00.
On to `C[C@@]1(C#N)COCc2ccc(C(=O)NCc3cc4nc(-c5cn(C6COC6)nc5OC(F)F)ccc4cn3)cc21` [Compound 154], for which the pIC50 was 6.30 to 7.00.
On the same count and under the same terms, the value for `Cc1cc(-c2ccc3cnc(CNC(=O)c4ccc5c(c4)[C@](C)(C#N)COC5)cc3n2)on1` [Compound 231] was below 6.00; that for `C[C@@H]1CN(c2cccc(-c3ccc4[nH]c(CNC(=O)c5ccc6c(c5)[C@](C)(CO)CC6)nc4c3)c2)C[C@H](C)O1` [Compound 526] was 6.00 to 6.30.
Still for that read-out and setting: the value for `C[C@@]1(F)COCc2ccc(C(=O)NCc3cc4nc(-c5ccnc(N6CC[C@H]7COC[C@@H]7C6)n5)ccc4cn3)cc21` [Compound 307] was 6.30 to 7.00; that for `COc1ccc(-c2ccc3cnc(CNC(=O)c4ccc5c(c4)[C@](C)(C#N)COC5)cc3n2)cc1` [Compound 108] was 6.00 to 6.30.
Same read-out and setting: the value for `C[C@@]1(F)COCc2ccc(C(=O)NCc3cc4nc(-c5cccc(C(F)F)n5)ccc4nn3)cc21` [Compound 254] was 6.00 to 6.30; that for `C[C@@]1(C#N)COCc2ccc(C(=O)NCc3cc4nc(-n5cc(F)c(N6CCC6)n5)ccc4cn3)cc21` [Compound 425] was 6.30 to 7.00.
Take `COc1nn(C(F)F)cc1-c1ccc2cnc(CNC(=O)c3ccc4c(c3)[C@](C)(C#N)COC4)cc2n1` [Compound 193]: the pIC50 was 6.00 to 6.30.
Compound `COC(=O)c1cccc(C#Cc2ccnc(CNC(=O)c3ccc4c(c3)[C@](C)(C#N)CO4)c2)c1` [Compound 37] showed a pIC50 below 6.00.
On the same count and under the same terms, the value for `C[C@@]1(C#N)COCc2ccc(C(=O)NCc3cc4nc(-c5cccnc5)sc4cn3)cc21` [Compound 439] was below 6.00.

Staying with this experiment, now noted: 1 h, read-out: BRG1 Max % Inhibition, ADP-Glo, 30 nM BRG-1, 400 μM ATP.
`COc1nn(C2COC2)cc1-c1ccc2cnc(CNC(=O)c3ccc4c(c3)[C@](C)(C#N)COC4)cc2n1` [Compound 236]: the Emax amounted to 90%.
The same measure, in the same setting: the value for `Cc1cc2c(-c3ccc4cnc(CNC(=O)c5ccc6c(c5)[C@](C)(C#N)COC6)cc4n3)ccc(F)c2n1C` [Compound 129] was 98%.
For `COC(=O)N1CCC2CC2(c2ccc3cnc(CNC(=O)c4ccc5c(c4)[C@](C)(C#N)COC5)cc3n2)C1` (some centres unmarked) [Compound 523], the Emax came to 58%.
On the same count and under the same terms, the value for `C[C@@]1(C#N)COCc2ccc(C(=O)NCc3cc4nc(-c5cccc6c5ccn6CCO)ccc4cn3)cc21` [Compound 159] was 95%; that for `COc1ccncc1-c1ccc2cnc(CNC(=O)c3ccc4c(c3)[C@](C)(C#N)COC4)cc2n1` [Compound 489] was 76%; that for `C[C@@]1(C#N)COCc2c(F)cc(C(=O)NCc3cc4nc(-c5ccccc5)ccc4cn3)cc21` [Compound 400] was 68%.
Consider `C[C@@]1(C#N)COCc2ccc(C(=O)NCc3cc4nc(-c5cncc(N6CCC6)n5)sc4cn3)cc21` [Compound 353], for which the Emax was determined as 82%.
For the compound `C[C@@]1(C#N)COCc2ccc(C(=O)NCc3cc4nc(-c5cn(C6COC6)nc5OC(F)F)ccc4cn3)cc21` [Compound 154], the Emax came to 95%.
On the same count and under the same terms, next, `Cc1cc(-c2ccc3cnc(CNC(=O)c4ccc5c(c4)[C@](C)(C#N)COC5)cc3n2)on1` [Compound 231]: 46%; `C[C@@H]1CN(c2cccc(-c3ccc4[nH]c(CNC(=O)c5ccc6c(c5)[C@](C)(CO)CC6)nc4c3)c2)C[C@H](C)O1` [Compound 526]: 61.2%.
Consider `C[C@@]1(F)COCc2ccc(C(=O)NCc3cc4nc(-c5ccnc(N6CC[C@H]7COC[C@@H]7C6)n5)ccc4cn3)cc21` [Compound 307], for which the Emax worked out at 97%.
Regarding `COc1ccc(-c2ccc3cnc(CNC(=O)c4ccc5c(c4)[C@](C)(C#N)COC5)cc3n2)cc1` [Compound 108], the Emax turned out to be 91%.
Same read-out and setting: next, `C[C@@]1(F)COCc2ccc(C(=O)NCc3cc4nc(-c5cccc(C(F)F)n5)ccc4nn3)cc21` [Compound 254]: 77%.
The same measure, in the same setting: next, `C[C@@]1(C#N)COCc2ccc(C(=O)NCc3cc4nc(-n5cc(F)c(N6CCC6)n5)ccc4cn3)cc21` [Compound 425]: 93%; `COc1nn(C(F)F)cc1-c1ccc2cnc(CNC(=O)c3ccc4c(c3)[C@](C)(C#N)COC4)cc2n1` [Compound 193]: 86%; `COC(=O)c1cccc(C#Cc2ccnc(CNC(=O)c3ccc4c(c3)[C@](C)(C#N)CO4)c2)c1` [Compound 37]: 21%.
`C[C@@]1(C#N)COCc2ccc(C(=O)NCc3cc4nc(-c5cccnc5)sc4cn3)cc21` [Compound 439]: the Emax came out at 36%.

Usually IC50 stands for the point on the concentration scale where inhibition reaches its midpoint. A high value points to weaker potency. What is called pIC50 is the IC50 on a negative log10 scale, so that one unit is a factor of ten. Read a high pIC50 as a low IC50.
